The record followed here is patent US20030236212A1, “Functionalized long chain derivatives as acyl coenzyme-A mimics, compositions thereof, and methods of cholesterol management and related uses” (priority 2002, published 2003).

The test system of one series is primary rat hepatocytes. The series is described as follows: Synthesis of total lipids (14C-acetate labeling) in primary rat hepatocytes. In kind it is cell-based. Conditions: for IC50: Rattus norvegicus, Hepatocyte, read-out: IC50, inhibition of lipid synthesis in primary hepatocytes. The protocol: A male Sprague-Dawley rate was anesthetized by administration of sodium pentobarbitol by intraperitoneal at 80 mg/kg. In situ perfusion of the liver was performed as follows. The abdomen of the animal was opened, the portal vein canulated, and the liver perfused with WOSH solution (149 mM NaCl, 9.2 mM Na HEPES, 1.7 mM Fructose, 0.5 mM EGTA, 0.029 mM Phenol red, 10 U/ml heparin, pH 7.5) at a flow rate of 30 ml/min for 6 minutes. To digest the liver, DSC solution (6.7 mM KCl, 143 mM NaCl, 9.2 mM Na HEPES, 5 mM CaCl2-2H2O, 1.7 mM Fructose, 0.029 mM Phenol red, 0.2% BSA, 100 U/ml collagenase Type 1,160 BAEE/ml trypsin inhibitor, pH 7.5) was perfused through the liver at a flow rate of 30 ml/min for 6 minutes at a temperature of 37° C. After digestion, cells were dispersed in a solution of DMEM-(DMEM containing 2 mM GlutMax-1, 0.2% BSA, 5% FBS, 12 nM insulin, 1.2 μM hydrocortisone) to stop the digestion process. The crude cell suspension was filtered through three layers of stainless steel mesh with pore sizes of 250, 106, and 75 μm respectively. Filtered cells were centrifuged at 50×g for two minutes and the supernatant discarded. The resulting cell pellet was resuspended in DMEM and centrifuged again. This final cell pellet was resuspended in DMEM+HS solution (DMEM containing 2 mM GlutMax-1, 20 mM delta-aminolevulinic acid, 17.4 mM MEM nonessential amino acids, 20% FBS, 12 nM insulin, 1.2 μM hydrocortisone) and plated to form monolayer cultures at a density of 100×10^3 cells/cm^2 on collagen coated culture dishes.
To test the effect of an illustrative compound of the invention on synthesis rates of total lipids, the monolayer cultures were exposed to 1, 3, 10, 30, 100, or 300 μM of Compound A or 10 μM of Compound 1 in DMEM+containing 1 μCi/ml 14C-acetate, D-glucose, hepes, glutamine, leucine, alanine, lactate, pyruvate, non-essential amino acids, BSA, and gentamicine. Control cells were exposed to the same media lacking lovastatin or the test compounds. All cells were exposed to 0.1% DMSO. Metabolic labeling with ^14C-acetate continued for 4 hr at 37° C. After labeling, cells were washed twice with 1 mL of PBS followed by addition of scintallant (Microscent E) and counted on Topcount®.

A further series has as its system obese female Zucker rats. The series is described as follows: Oral daily treatment of obese female Zucker rats for 14 days (body weight, serum lipids, glucose, insulin). In kind it is in vivo, rat. Set-up: HDL-C / Glucose / Insulin / NEFA / BHA / TG / TC / Non HDL-C: unit not given here. Conditions: for change in vivo at 100 mg/kg/day / change in vivo at 100 mg/kg: 100 mg/kg/day. How it is done: The dosing vehicle was administered to control animals in parallel experiments.
Body weight was determined daily prior to dosing. Animals were allowed free access to rodent chow and water throughout the study. Blood glucose was determined after a 6-hour fast in the afternoon without anesthesia from a tail vein. Serum was also prepared from a blood sample subsequently obtained from the orbital venous plexus (with O2/CO2 anesthesia) prior to and after one week treatment and used lipid and insulin determinations. At two weeks, blood glucose was again determined after a 6-hour fast without anesthesia from a tail vein. Soon thereafter, animals were sacrificed by CO2 inhalation in the afternoon and cardiac blood serum was collected and assessed for various lipids and insulin.

Where [1] appears, read: obese female Zucker rats, oral gavage daily 14 days, 5 mg/kg.
Setting [2] is: obese female Zucker rats, oral, 14 days, 100 mg/kg/day (Table 1).
Setting [3] is: Rattus norvegicus, 336 h, obese female Zucker rats, oral daily, fourteen days, read-out: % wt. gain.
The mark [4] stands for this setting: Rattus norvegicus, 336 h, obese female Zucker rats, oral daily, fourteen days, read-out: BHA, Percent Change from Pre-treatment.
The mark [5] stands for this setting: Rattus norvegicus, 336 h, obese female Zucker rats, oral daily, fourteen days, read-out: Glucose, Percent Change from Pre-treatment.
The mark [6] stands for this setting: Rattus norvegicus, 336 h, obese female Zucker rats, oral daily, fourteen days, read-out: HDL-C, Percent Change from Pre-treatment.
[7] abbreviates: Rattus norvegicus, 336 h, obese female Zucker rats, oral daily, fourteen days, read-out: Insulin, Percent Change from Pre-treatment.
The mark [8] stands for this setting: Rattus norvegicus, 336 h, obese female Zucker rats, oral daily, fourteen days, read-out: NEFA, Percent Change from Pre-treatment.
The mark [9] stands for this setting: Rattus norvegicus, 336 h, obese female Zucker rats, oral daily, fourteen days, read-out: Non HDL-C, Percent Change from Pre-treatment.
The mark [10] stands for this setting: Rattus norvegicus, 336 h, obese female Zucker rats, oral daily, fourteen days, read-out: TC, Percent Change from Pre-treatment.
Where [11] appears, read: Rattus norvegicus, 336 h, obese female Zucker rats, oral daily, fourteen days, read-out: TG, Percent Change from Pre-treatment.

Like-named read-outs stand apart in the source and are kept apart here.

As a reminder, the IC50 is the concentration that gives 50% inhibition. In the case of `CC(C)(CCCCOCCCCC(C)(C)COP(=O)(O)O)COP(=O)(O)O`, the IC50 in the series with primary rat hepatocytes came to 43 µM.
As to `CC(C)(CCCCC(=O)CCCCC(C)(C)COP(=O)(O)O)COP(=O)(O)O`, the IC50 in the series on primary rat hepatocytes was determined as 16 µM.
As for `CC(C)(CCCCCOCCCCCC(C)(C)COP(=O)(O)O)COP(=O)(O)O`, in the series with primary rat hepatocytes, the IC50 turned out to be 28 µM.
The same measure, in the same setting: the figure for `CC(C)(CCCCCC(=O)CCCCCC(C)(C)COP(=O)(O)O)COP(=O)(O)O` is 35 µM.
`CC(C)(CO)CCCCOCCCCC(C)(C)CO` [Compound 1, bis(6-Hydroxy-5,5-dimethylhexyl)ether, reference compound]: the “reduction of rates of total lipid synthesis” value in the series with primary rat hepatocytes (rat hepatocyte cells, 10 μM, 14C-acetate 4 hr, vs vehicle control) was “at least 65%”. In addition, the blood glucose levels entry in the series with obese female Zucker rats (fasted obese female Zucker rats, oral gavage daily 14 days, 5 mg/kg) is given as “reduction”. Further, the “serum insulin relative to pretreatment” value with obese female Zucker rats (fasted obese female Zucker rats, two weeks of treatment, 5 mg/kg) is reported as “increased”. Moreover, in the series on obese female Zucker rats (setting [1]), the “liver to body weight” value was “increased”; the serum total cholesterol entry is “only modestly elevated”; the “weight gain, percent of initial weight after two weeks” value worked out at 1.5%. In addition, in the series on obese female Zucker rats (setting [2]), the BHA came out at 1.6 ± 0.3, the Glucose is listed as −25.3 ± 7.2, the HDL-C is given as 113.9 ± 26.4 and the Insulin is on record as 42.1 ± 23. Besides, in the series with obese female Zucker rats (setting [2]), the NEFA amounted to 0.056 ± 0.002, the “Non HDL-C” value is reported as −26.9 ± 9.3, the TC was −82.5 ± 3.6 and the TG was found to be 468.8 ± 139.7.
By melting point is commonly meant the temperature, or range, at which the solid turns liquid. `CC(C)(CCCCC(=O)CCCCC(C)(C)COP(=O)(O)O)COP(=O)(O)O.N.N` [Compound D, Phosphoric Acid mono-(2,2,12,12-tetramethyl-7-oxo-13-phosphonooxytridecyl) ester, diammonium salt] returned a melting point of 191 to 193 °C. Also, the change in vivo at 10 mg/kg/day with obese female Zucker rats (Rattus norvegicus, 336 h, obese female Zucker rats, oral daily, fourteen days, 10 mg/kg/day, read-out: % wt. gain) is 12%. Also, in the series on obese female Zucker rats (Rattus norvegicus, 336 h, obese female Zucker rats, oral daily, fourteen days, 10 mg/kg/day, read-out: BHA, Percent Change from Pre-treatment), the change in vivo at 10 mg/kg stood at 123%. Further, the change in vivo at 10 mg/kg in the series with obese female Zucker rats (Rattus norvegicus, 336 h, obese female Zucker rats, oral daily, fourteen days, 10 mg/kg/day, read-out: Glucose, Percent Change from Pre-treatment) is -5%. Moreover, the change in vivo at 10 mg/kg in the series with obese female Zucker rats (Rattus norvegicus, 336 h, obese female Zucker rats, oral daily, fourteen days, 10 mg/kg/day, read-out: HDL-C, Percent Change from Pre-treatment) was 5%. The change in vivo at 10 mg/kg with obese female Zucker rats (Rattus norvegicus, 336 h, obese female Zucker rats, oral daily, fourteen days, 10 mg/kg/day, read-out: Insulin, Percent Change from Pre-treatment) is 4%. In addition, in the series with obese female Zucker rats (Rattus norvegicus, 336 h, obese female Zucker rats, oral daily, fourteen days, 10 mg/kg/day, read-out: NEFA, Percent Change from Pre-treatment), the change in vivo at 10 mg/kg was -13%. Besides, the change in vivo at 10 mg/kg with obese female Zucker rats (Rattus norvegicus, 336 h, obese female Zucker rats, oral daily, fourteen days, 10 mg/kg/day, read-out: Non HDL-C, Percent Change from Pre-treatment) came to 25%. For the same compound, in the series on obese female Zucker rats (Rattus norvegicus, 336 h, obese female Zucker rats, oral daily, fourteen days, 10 mg/kg/day, read-out: TC, Percent Change from Pre-treatment), the change in vivo at 10 mg/kg was found to be 8%. Also, in the series with obese female Zucker rats (Rattus norvegicus, 336 h, obese female Zucker rats, oral daily, fourteen days, 10 mg/kg/day, read-out: TG, Percent Change from Pre-treatment), the change in vivo at 10 mg/kg was 11%. The change in vivo at 30 mg/kg/day with obese female Zucker rats (Rattus norvegicus, 336 h, obese female Zucker rats, oral daily, fourteen days, 30 mg/kg/day, read-out: % wt. gain) turned out to be 9%. The change in vivo at 30 mg/kg with obese female Zucker rats (Rattus norvegicus, 336 h, obese female Zucker rats, oral daily, fourteen days, 30 mg/kg/day, read-out: BHA, Percent Change from Pre-treatment) is 271%. Also, the change in vivo at 30 mg/kg in the series with obese female Zucker rats (Rattus norvegicus, 336 h, obese female Zucker rats, oral daily, fourteen days, 30 mg/kg/day, read-out: Glucose, Percent Change from Pre-treatment) is -4%. Also, the change in vivo at 30 mg/kg with obese female Zucker rats (Rattus norvegicus, 336 h, obese female Zucker rats, oral daily, fourteen days, 30 mg/kg/day, read-out: HDL-C, Percent Change from Pre-treatment) came out at 28%. Further, the change in vivo at 30 mg/kg in the series on obese female Zucker rats (Rattus norvegicus, 336 h, obese female Zucker rats, oral daily, fourteen days, 30 mg/kg/day, read-out: Insulin, Percent Change from Pre-treatment) amounted to 2%. For the same compound, the change in vivo at 30 mg/kg in the series on obese female Zucker rats (Rattus norvegicus, 336 h, obese female Zucker rats, oral daily, fourteen days, 30 mg/kg/day, read-out: NEFA, Percent Change from Pre-treatment) is -25%. Further, in the series with obese female Zucker rats (Rattus norvegicus, 336 h, obese female Zucker rats, oral daily, fourteen days, 30 mg/kg/day, read-out: Non HDL-C, Percent Change from Pre-treatment), the change in vivo at 30 mg/kg was found to be 22%. Besides, the change in vivo at 30 mg/kg with obese female Zucker rats (Rattus norvegicus, 336 h, obese female Zucker rats, oral daily, fourteen days, 30 mg/kg/day, read-out: TC, Percent Change from Pre-treatment) was 21%. In addition, the change in vivo at 30 mg/kg in the series with obese female Zucker rats (Rattus norvegicus, 336 h, obese female Zucker rats, oral daily, fourteen days, 30 mg/kg/day, read-out: TG, Percent Change from Pre-treatment) was -12%. Further, in the series on obese female Zucker rats (setting [3]), the change in vivo at 100 mg/kg/day amounted to 8%. The change in vivo at 100 mg/kg with obese female Zucker rats (setting [4]) came to 814%. Besides, the change in vivo at 100 mg/kg with obese female Zucker rats (setting [5]) was -3%. In addition, the change in vivo at 100 mg/kg in the series with obese female Zucker rats (setting [6]) turned out to be 57%. Moreover, the change in vivo at 100 mg/kg in the series on obese female Zucker rats (setting [7]) turned out to be 14%. In addition, the change in vivo at 100 mg/kg in the series on obese female Zucker rats (setting [8]) was -22%. Further, the change in vivo at 100 mg/kg in the series with obese female Zucker rats (setting [9]) came out at 71%. In the series on obese female Zucker rats (setting [10]), the change in vivo at 100 mg/kg was 55%. Moreover, in the series on obese female Zucker rats (setting [11]), the change in vivo at 100 mg/kg was -1%.
`CC(=O)C(CCCCC(C)(C)CO)CCCCC(C)(C)CO` [Compound G, 9-Hydroxy-3-(6-hydroxy-5,5-dimethylhexyl)-8,8-dimethylnonan-2-one] showed a melting point of 178 to 180 °C.
For `CC(C)(CO)CCCCN(O)CCCCC(C)(C)CO` [Compound I], the melting point was determined as 73 °C.
In the case of `CC(C)(CO)CCCCNC(=O)OCCCCC(C)(C)CO` [Compound M, (6-Hydroxy-5,5-dimethylhexyl)-carbamic acid 6-hydroxy-5,5-dimethylhexyl ester], the change in vivo at 100 mg/kg/day in the series on obese female Zucker rats (setting [3]) was found to be 20%. The change in vivo at 100 mg/kg with obese female Zucker rats (setting [4]) was 145%; with obese female Zucker rats (setting [5]), 2%; with obese female Zucker rats (setting [6]), 65%; with obese female Zucker rats (setting [7]), 26%; in the series on obese female Zucker rats (setting [8]) it was -53%; in the series on obese female Zucker rats (setting [9]), 84%. Further, the results for the change in vivo at 100 mg/kg in the series on obese female Zucker rats (setting [10]) and in the series on obese female Zucker rats (setting [11]) were 70% and -4%, respectively.
Take `CC(=O)C(CCCCC(C)(C)CO)CCCCC(C)(C)CO` [drawing 124]: in the series on primary rat hepatocytes, the IC50 amounted to 62 µM.
For the compound `CC(C)(CO)CCCCN(O)CCCCC(C)(C)CO` [drawing 125], the IC50 with primary rat hepatocytes was 64 µM.
Still for that read-out and setting: next, `CC(C)(CO)CCCCOC(=O)CCCCC(C)(C)CO` [drawing 126]: 14 µM.
